Measurements reported in patent publication US6900193B1, “Structural modification of 19-norprogesterone I: 17-α-substituted-11-β-substituted-4-aryl and 21-substituted 19-norpregnadienedione as new antiprogestational agents” (The United States of America as represented by the …, priority 1996, dated 2005).
“Also recorded” adds a separate entry of the source.

Experiments:
[1] = biological target: T1, glucocorticoid receptor (estrogen-primed rabbit thymus) (Oryctolagus cuniculus, UniProt P59667); assay: Relative binding affinity, glucocorticoid receptor; conditions: for RELATIVE BINDING AFFINITY Glucocorticoid / BINDING AFFINITY Glucocortic: estrogen-primed rabbit thymus, dexamethasone = 100%; for binding affinity for the glucocorticoid receptor, in words: rabbit thymus, versus CDB-2914 (69B) where stated; for BINDING AFFINITY Glucocortic: Table 2
T1 construct: preparation of cytosols for the progesterone and glucocorticoid receptor assays; from tissue; host or cells: thymus of estradiol-primed immature female New Zealand White rabbits (cytosol)
T1 sequence (P59667 1-772): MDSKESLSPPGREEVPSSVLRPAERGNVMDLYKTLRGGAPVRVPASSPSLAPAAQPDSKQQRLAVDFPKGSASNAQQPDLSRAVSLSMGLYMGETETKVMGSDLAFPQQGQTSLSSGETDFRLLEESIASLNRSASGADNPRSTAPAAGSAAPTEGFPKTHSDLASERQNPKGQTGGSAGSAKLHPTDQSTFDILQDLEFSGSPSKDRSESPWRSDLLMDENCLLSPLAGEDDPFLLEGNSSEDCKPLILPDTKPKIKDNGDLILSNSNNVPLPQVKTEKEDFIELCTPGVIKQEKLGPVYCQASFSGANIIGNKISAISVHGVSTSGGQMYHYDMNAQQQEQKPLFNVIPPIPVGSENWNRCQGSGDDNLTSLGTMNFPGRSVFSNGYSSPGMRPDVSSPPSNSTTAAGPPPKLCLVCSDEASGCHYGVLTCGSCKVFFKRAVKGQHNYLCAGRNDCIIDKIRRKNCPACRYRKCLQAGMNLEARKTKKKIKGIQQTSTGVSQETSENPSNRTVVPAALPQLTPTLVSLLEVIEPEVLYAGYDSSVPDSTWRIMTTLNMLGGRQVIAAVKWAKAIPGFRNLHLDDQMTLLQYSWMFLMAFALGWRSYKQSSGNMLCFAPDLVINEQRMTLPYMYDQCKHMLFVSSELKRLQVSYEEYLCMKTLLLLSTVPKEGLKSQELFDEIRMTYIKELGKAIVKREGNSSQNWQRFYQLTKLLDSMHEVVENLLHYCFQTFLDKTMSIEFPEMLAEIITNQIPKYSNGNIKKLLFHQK

[2] = test system: progesterone-induced endometrial proliferation; assay: AntiClauberg test; type: in vivo, rabbit; set-up: key to ANTIPROGESTATIONAL Anti-Clauberg: relative oral potency vs. reference compound set to 100; conditions: for ANTIPROGESTATIONAL Anti-Clauberg: relative potency; for ANTIPROGESTATIONAL Anti-Clauberg / BIOLOGICAL ACTIVITY antiClauberg: CDB-2914 = 100 (assigned); for antiClauberg / oral antiprogestational activity, in words: versus the standard 69B; for BIOLOGICAL ACTIVITY antiClauberg: Table 2; for ANTIPROGESTATIONAL ACTIVITY ANTI-CLAUBERG: estrogen-primed immature rabbits, CDB-2477 = 1.0 (assigned)
How it was run: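 Immature NZW rabbits were estradiol-primed s.c. for 6 days, then given progesterone 0.8 mg/day s.c. plus compound orally or s.c. for 5 days. Uteri were sectioned and H&E-scored for endometrial glandular proliferation (McPhail). Percent inhibition was calculated per dose versus progesterone-only animals.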

Row | Structure (SMILES) | RELATIVE BINDING AFFINITY Glucocorticoid [1] [%] | binding affinity for the glucocorticoid receptor, in words [1] | ANTIPROGESTATIONAL Anti-Clauberg ([2]; oral) | antiClauberg / oral antiprogestational activity, in words ([2]; oral) | BINDING AFFINITY Glucocortic [1] [%] | BIOLOGICAL ACTIVITY antiClauberg ([2]; oral) | further results
1 | CC(=O)OCC(=O)[C@@]1(OC(C)=O)CCC2C3CCC4=CC(=O)CCC4=C3C(c3ccc(N(C)C)cc3)C[C@@]21C (stereo partly drawn) [Compound 15, 17α,21-diacetoxy-11β-[4-(N,N-dimethylamino)phenyl]-19-norpregna-4,9-diene-3,20-dione] | 51 | substantial reduction in glucocorticoid binding affinity; also recorded: low binding affinity | 279 | greater activity than the standard |  |  | antiprogestational potency compared to the lead compound (CDB-2914), oral antiClauberg test ([2]; oral, versus CDB-2914): 2.79 times
2 | COCC(=O)C1(OC(C)=O)CCC2C3CCC4=CC(=O)CCC4=C3C(c3ccc(N4CCCCC4)cc3)CC21C (stereo not drawn) [Compound 123a, 17α-Acetoxy-1113-[4-(N-piperidino)phenyl]-21-methoxy-19-norpregna-4,9-diene-3,20-dione] |  |  |  |  | 11 | 45-83 | 
3 | CC(=O)O[C@]1(C(=O)CO)CCC2C3CCC4=CC(=O)CCC4=C3C(c3ccc(N(C)C)cc3)C[C@@]21C (stereo partly drawn) [Compound 41, 17α-acetoxy-21-hydroxy-11β-[4-(N,N-dimethylamino)phenyl]-19-norpregna-4,9-diene-3,20-dione] | 71 |  | 140 | greater activity than the standard |  |  | 
4 | CC#C[C@]1(O)CC[C@H]2[C@@H]3CCC4=CC(=O)CCC4=C3[C@@H](c3ccc(N(C)C)cc3)C[C@@]21C [mifepristone] |  | greater binding affinity |  |  |  |  | ANTIPROGESTATIONAL ACTIVITY ANTI-CLAUBERG ([2]; oral): 1.0
5 | CC(=O)O[C@]1(C(C)=O)CC[C@H]2[C@@H]3CCC4=CC(=O)CCC4=C3[C@@H](c3ccc(N4CCCCC4)cc3)C[C@@]21C [Compound 71, 17α-Acetoxy-11β-[4(N-Piperidino)phenyl]-19-norpregna-4,9-diene-3,20-dione] |  | low binding affinity |  | greater activity than the standard | 20 | 253 | 
6 | COCC(=O)[C@@]1(OC)CC[C@H]2[C@@H]3CCC4=CC(=O)CCC4=C3[C@@H](c3ccc(N(C)C)cc3)C[C@@]21C [Compound 113a, 17α,21-Dimethoxy-11β-[4-(N,N-dimethylamino)phenyl]-19-norpregna-4,9-diene-3,20-dione] |  | reduced binding affinity |  | greater activity than the standard; also recorded: more than twice as active at the standard | 62 | 229 | 
7 | CC(=O)O[C@]1(C(C)=O)CC[C@H]2[C@@H]3CCC4=CC(=O)CCC4=C3[C@@H](c3ccc(N(C)C)cc3)C[C@@]21C [Compound 69B, 17α-acetoxy-11β-(4-N,N-dimethylaminophenyl)-19-norpregna-4,9-diene-3,20-dione, reference compound] | 114 |  | 100 |  | 114 | 100 | potency of the standard relative to mifepristone in the antiClauberg test ([2]; oral administration): 3 times; ANTIPROGESTATIONAL ACTIVITY ANTI-CLAUBERG ([2]; oral): 3.27; potency of 69B relative to mifepristone in the antiClauberg test ([2]; oral, 95% C.I.=1.41-7.58, previous studies): 3.27 ×
8 | CN(C)c1ccc(C2CC3(C)C(CCC34OCC4=O)C3CCC4=CC(=O)CCC4=C23)cc1 (stereo not drawn) [Compound 12, 17-Spirooxetano-3′-oxo-11β-[4-(N,N-dimethylamino)phenyl]-19-norpregna-4,9-dien-3-one] | 32 |  | 29 |  |  |  | 
9 | CC(=O)O[C@]1(C(=O)CF)CCC2C3CCC4=CC(=O)CCC4=C3C(c3ccc(N(C)C)cc3)C[C@@]21C (stereo partly drawn) [Compound 13, 17α-acetoxy-21-fluoro-11β-[4-(N,N-dimethylamino)phenyl]-19-norpregna-4,9-diene-3,20-dione] | 109 |  | 80 |  |  |  | 
10 | CC(=O)OCC(=O)[C@@]1(OC(C)=O)CC[C@H]2[C@@H]3CCC4=CC(=O)CCC4=C3[C@@H](c3ccc(C(C)=O)cc3)C[C@@]21C [Compound 106b, 17α,21-Diacetoxy-11β-(4-acetylphenyl)19-norpregna-4,9-diene-3,20-dione] |  |  |  |  | 14 | 34 | 
11 | CC(=O)O[C@]1(C(=O)CCl)CCC2C3CCC4=CC(=O)CCC4=C3C(c3ccc(N(C)C)cc3)C[C@@]21C (some centres unmarked) [Compound 14A] | 90 |  | 68 |  |  |  | 
